# Test results from patent US20070128217A1 (priority 2003, published 2007).
# Tests used:
# [1] = system: antibodies in sera from SARS patients (sera 1a, 1b, 2, 6, 37, 62, London, SARS-yellow, SARS-green); assay type: binding, human; design: Binding of serum 6 to linear peptides of protein X1 of SARS-CoV Urbani / Binding of serum 37 to linear peptides of protein X1 of SARS-CoV Urbani / Binding of serum 6 to looped/cyclic peptide (PEPSCAN-ELISA) / Binding of serum 37 to looped/cyclic peptide (PEPSCAN-ELISA) / Binding of serum 37 to looped/cyclic peptides of protein X1 of SARS-CoV Urbani / Binding of serum 6 to linear peptides of protein X2 / Binding of serum 37 to linear peptides of protein X2 / Binding of serum 37 to looped/cyclic peptides of protein X2 of SARS-CoV Urbani / Binding of serum 6 to linear peptides of protein M of SARS-CoV Urbani / Binding of serum 37 to linear peptides of protein M of SARS-CoV Urbani / Binding of serum 6 to looped/cyclic peptides of protein M of SARS-CoV Urbani / Binding of serum 37 to looped/cyclic peptides of protein M of SARS-CoV Urbani / Binding of serum 6 to linear peptides of protein X3 of SARS-CoV Urbani / Binding of serum 37 to linear peptides of protein X3 of SARS-CoV Urbani / Binding of serum 37 to looped/cyclic peptides of protein X3 of SARS-CoV Urbani / Binding of serum 6 to linear peptides of protein X4 of SARS-CoV Urbani / Binding of serum 37 to linear peptides of protein X4 of SARS-CoV Urbani / Binding of serum 37 to looped/cyclic peptides of protein X4 of SARS-CoV Urbani / Binding of serum 6 to linear peptides of protein X5 of SARS-CoV Urbani / Binding of serum 37 to linear peptides of protein X5 of SARS-CoV Urbani / Binding of serum 37 to looped/cyclic peptides of protein X5 of SARS-CoV Urbani / Binding of serum 6 to linear peptides of protein N of SARS-CoV Urbani / Binding of serum 37 to linear peptides of protein N of SARS-CoV Urbani / Binding of serum 6 to linear peptide (PEPSCAN-ELISA) / Binding of serum 1a to looped/cyclic peptides of protein N of SARS-CoV Urbani / Binding of serum 1b to looped/cyclic peptides of protein N of SARS-CoV Urbani / Binding of serum 2 to looped/cyclic peptides of protein N of SARS-CoV Urbani / Binding of serum 6 to looped/cyclic peptides of protein N of SARS-CoV Urbani / Binding of serum 37 to looped/cyclic peptides of protein N of SARS-CoV Urbani / Binding of serum 62 to looped/cyclic peptides of protein N of SARS-CoV Urbani / Binding of serum London to looped/cyclic peptides of protein N of SARS-CoV Urbani / Binding of serum SARS-green to looped/cyclic peptides of protein N of SARS-CoV Urbani: unit not given here
# [2] = system: control sera (pooled serum of ten healthy LUMC hospital workers; commercial negative donor pooled serum from the Dutch bloodbank); assay type: binding, human; design: Binding of Control serum LUMC to linear peptides / Binding of Control serum Blood-bank to linear peptides / Binding of Control serum LUMC to looped peptides / Binding of Control Serum Blood-Bank to Looped peptides / Binding of Control serum LUMC to linear peptides of the protein M of SARS-CoV Urbani / Binding of Control serum Blood-bank to linear peptides of the protein M of SARS-CoV Urbani / Binding of Control serum LUMC to looped peptides of the protein M of SARS-CoV Urbani / Binding of Control Serum Blood-Bank to Looped peptides of the protein M of SARS-CoV Urbani: unit not given here
# [3] = system: rabbit serum obtained by immunizing a rabbit with the SARS-CoV strain Frankfurt 1; assay type: binding; design: Binding of a rabbit serum to linear peptides / Binding of a rabbit serum to looped peptides / Rabbit serum linear peptides / Rabbit serum looped peptides / Binding of a rabbit serum to linear peptides of protein N of SARS-CoV Urbani (Rabbit serum linear peptides) / Binding of a rabbit serum to looped/cyclic peptides of protein N of SARS-CoV Urbani (Rabbit serum looped peptides): unit not given here
sequence,measurement,setting,value
ELVIGAVIIRGHLRM,Binding of serum 1a to linear peptides of protein M of SARS-CoV Urbani,[1],0.8
same,Binding of serum 1a to looped/cyclic peptides of protein M of SARS-CoV Urbani,[1],0.8
same,Binding of serum 1b to linear peptides of protein M of SARS-CoV Urbani,[1],0.6
same,Binding of serum 1b to looped/cyclic peptides of protein M of SARS-CoV Urbani,[1],0.4
same,Binding of serum 2 to linear peptides of protein M of SARS-CoV Urbani,[1],0.7
same,Binding of serum 2 to looped/cyclic peptides of protein M of SARS-CoV Urbani,[1],0.7
same,Binding of serum 6 to linear peptides of protein M of SARS-CoV Urbani,[1],0.3
same,Binding of serum 6 to looped/cyclic peptides of protein M of SARS-CoV Urbani,[1],0.7
same,Binding of serum 37 to linear peptides of protein M of SARS-CoV Urbani,[1],0.8
same,Binding of serum 37 to looped/cyclic peptides of protein M of SARS-CoV Urbani,[1],0.7
same,Binding of serum 62 to linear peptides of protein M of SARS-CoV Urbani,[1],0.8
same,Binding of serum 62 to looped/cyclic peptides of protein M of SARS-CoV Urbani,[1],0.6
same,Binding of serum London to linear peptides of protein M of SARS-CoV Urbani,[1],0.3
same,Binding of serum London to looped/cyclic peptides of protein M of SARS-CoV Urbani,[1],0.2
same,Binding of serum SARS-green to linear peptides of protein M of SARS-CoV Urbani,[1],0.3
same,Binding of serum SARS-green to looped/cyclic peptides of protein M of SARS-CoV Urbani,[1],0.3
same,Binding of serum SARS-yellow to linear peptides of protein M of SARS-CoV Urbani,[1],0.1
same,Binding of serum SARS-yellow to looped/cyclic peptides of protein M of SARS-CoV Urbani,[1],0.6
same,Binding of Control Serum Blood-Bank to Looped peptides of the protein M of SARS-CoV Urbani,[2],0.7
same,Binding of Control serum Blood-bank to linear peptides of the protein M of SARS-CoV Urbani,[2],0.7
same,Binding of Control serum LUMC to linear peptides of the protein M of SARS-CoV Urbani,[2],0.5
same,Binding of Control serum LUMC to looped peptides of the protein M of SARS-CoV Urbani,[2],0.6
same,Rabbit serum linear peptides,[3],0.8
same,Rabbit serum looped peptides,[3],0.1
IRQEEVQQELYSPLF,Binding of serum 1a to linear peptides of protein X4 of SARS-CoV Urbani,[1],0.7
same,Binding of serum 1b to linear peptides of protein X4 of SARS-CoV Urbani,[1],0.6
same,Binding of serum 2 to linear peptides of protein X4 of SARS-CoV Urbani,[1],0.5
same,Binding of serum 6 to linear peptides of protein X4 of SARS-CoV Urbani,[1],0.5
same,Binding of serum 37 to linear peptides of protein X4 of SARS-CoV Urbani,[1],0.8
same,Binding of serum 62 to linear peptides of protein X4 of SARS-CoV Urbani,[1],0.8
same,Binding of serum London to linear peptides of protein X4 of SARS-CoV Urbani,[1],0.7
same,Binding of serum SARS-green to linear peptides of protein X4 of SARS-CoV Urbani,[1],0.8
same,Binding of serum SARS-yellow to linear peptides of protein X4 of SARS-CoV Urbani,[1],0.7
same,"Recognition of the peptide by sera of SARS-CoV infected individuals, and form (linear, looped/cyclic) in which it is recognized",[1],recognized in looped/cyclic form
same,Binding of Control Serum Blood-Bank to Looped peptides,[2],0.7
same,Binding of Control serum Blood-bank to linear peptides,[2],0.7
same,Binding of Control serum LUMC to linear peptides,[2],0.7
same,Binding of Control serum LUMC to looped peptides,[2],0.9
same,Rabbit serum linear peptides,[3],0.4
same,Rabbit serum looped peptides,[3],0.4
ELLIQQWIQFMMSRR,Binding of serum 1a to linear peptides of protein X2,[1],0.7
same,Binding of serum 1a to looped/cyclic peptides of protein X2 of SARS-CoV Urbani,[1],0.5
same,Binding of serum 1b to linear peptides of protein X2,[1],0.5
same,Binding of serum 1b to looped/cyclic peptides of protein X2 of SARS-CoV Urbani,[1],0.4
same,Binding of serum 2 to linear peptides of protein X2,[1],0.4
same,Binding of serum 2 to looped/cyclic peptides of protein X2 of SARS-CoV Urbani,[1],0.5
same,Binding of serum 6 to linear peptides of protein X2,[1],0.3
same,Binding of serum 6 to looped/cyclic peptides of protein X2 of SARS-CoV Urbani,[1],0.3
same,Binding of serum 37 to linear peptides of protein X2,[1],0.6
same,Binding of serum 37 to looped/cyclic peptides of protein X2 of SARS-CoV Urbani,[1],0.5
same,Binding of serum 62 to linear peptides of protein X2,[1],0.6
same,Binding of serum 62 to looped/cyclic peptides of protein X2 of SARS-CoV Urbani,[1],0.6
same,Binding of serum London to linear peptides of protein X2,[1],0.4
same,Binding of serum London to looped/cyclic peptides of protein X2 of SARS-CoV Urbani,[1],0.2
same,Binding of serum SARS-green to linear peptides of protein X2,[1],0.6
same,Binding of serum SARS-green to looped/cyclic peptides of protein X2 of SARS-CoV Urbani,[1],0.4
same,Binding of serum SARS-yellow to linear peptides of protein X2,[1],0.8
same,Binding of serum SARS-yellow to looped/cyclic peptides of protein X2 of SARS-CoV Urbani,[1],0.4
same,Binding of Control Serum Blood-Bank to Looped peptides,[2],0.6
same,Binding of Control serum Blood-bank to linear peptides,[2],0.5
same,Binding of Control serum LUMC to linear peptides,[2],0.4
same,Binding of Control serum LUMC to looped peptides,[2],0.5
same,Binding of a rabbit serum to linear peptides,[3],0.4
same,Binding of a rabbit serum to looped peptides,[3],0.4
IDGSSGVANPAMDPI,Binding of serum 1a to linear peptides of protein X1 of SARS-CoV Urbani,[1],0.7
same,Binding of serum 1a to looped/cyclic peptides of protein X1 of SARS-CoV Urbani,[1],0.8
same,Binding of serum 1b to linear peptides of protein X1 of SARS-CoV Urbani,[1],0.6
same,Binding of serum 1b to looped/cyclic peptides of protein X1 of SARS-CoV Urbani,[1],0.7
same,Binding of serum 2 to linear peptides of protein X1 of SARS-CoV Urbani,[1],0.7
same,Binding of serum 2 to looped/cyclic peptides of protein X1 of SARS-CoV Urbani,[1],0.5
same,Binding of serum 6 to linear peptides of protein X1 of SARS-CoV Urbani,[1],0.5
same,Binding of serum 6 to looped/cyclic peptides of protein X1 of SARS-CoV Urbani,[1],0.3
same,Binding of serum 37 to linear peptides of protein X1 of SARS-CoV Urbani,[1],0.6
same,Binding of serum 37 to looped/cyclic peptides of protein X1 of SARS-CoV Urbani,[1],0.7
same,Binding of serum 62 to linear peptides of protein X1 of SARS-CoV Urbani,[1],0.6
same,Binding of serum 62 to looped/cyclic peptides of protein X1 of SARS-CoV Urbani,[1],0.6
same,Binding of serum London to linear peptides of protein X1 of SARS-CoV Urbani,[1],0.4
same,Binding of serum SARS-green to linear peptides of protein X1 of SARS-CoV Urbani,[1],0.3
same,Binding of serum SARS-green to looped/cyclic peptides of protein X1 of SARS-CoV Urbani,[1],0.6
same,Binding of serum SARS-yellow to linear peptides of protein X1 of SARS-CoV Urbani,[1],0.4
same,Binding of serum SARS-yellow to looped/cyclic peptides of protein X1 of SARS-CoV Urbani,[1],0.4
same,Binding of Control Serum Blood-Bank to Looped peptides,[2],0.6
same,Binding of Control serum Blood-bank to linear peptides,[2],0.6
same,Binding of Control serum LUMC to linear peptides,[2],0.6
same,Binding of Control serum LUMC to looped peptides,[2],0.7
same,Binding of a rabbit serum to linear peptides,[3],0.1
same,Binding of a rabbit serum to looped peptides,[3],0.5
CFVLAAVYRINWVTG,Binding of serum 1a to linear peptides of protein M of SARS-CoV Urbani,[1],0.8
same,Binding of serum 1a to looped/cyclic peptides of protein M of SARS-CoV Urbani,[1],0.6
same,Binding of serum 1b to linear peptides of protein M of SARS-CoV Urbani,[1],0.6
same,Binding of serum 1b to looped/cyclic peptides of protein M of SARS-CoV Urbani,[1],0.6
same,Binding of serum 2 to linear peptides of protein M of SARS-CoV Urbani,[1],0.6
same,Binding of serum 2 to looped/cyclic peptides of protein M of SARS-CoV Urbani,[1],0.5
same,Binding of serum 6 to linear peptides of protein M of SARS-CoV Urbani,[1],0.6
same,Binding of serum 6 to looped/cyclic peptides of protein M of SARS-CoV Urbani,[1],0.8
same,Binding of serum 37 to linear peptides of protein M of SARS-CoV Urbani,[1],0.4
same,Binding of serum 37 to looped/cyclic peptides of protein M of SARS-CoV Urbani,[1],0.6
same,Binding of serum 62 to linear peptides of protein M of SARS-CoV Urbani,[1],0.4
same,Binding of serum 62 to looped/cyclic peptides of protein M of SARS-CoV Urbani,[1],0.7
same,Binding of serum London to linear peptides of protein M of SARS-CoV Urbani,[1],0.4
same,Binding of serum London to looped/cyclic peptides of protein M of SARS-CoV Urbani,[1],0.2
same,Binding of serum SARS-green to linear peptides of protein M of SARS-CoV Urbani,[1],0.5
same,Binding of serum SARS-green to looped/cyclic peptides of protein M of SARS-CoV Urbani,[1],0.3
same,Binding of serum SARS-yellow to linear peptides of protein M of SARS-CoV Urbani,[1],0.2
same,Binding of serum SARS-yellow to looped/cyclic peptides of protein M of SARS-CoV Urbani,[1],0.4
same,Binding of Control Serum Blood-Bank to Looped peptides of the protein M of SARS-CoV Urbani,[2],0.6
same,Binding of Control serum Blood-bank to linear peptides of the protein M of SARS-CoV Urbani,[2],0.7
same,Binding of Control serum LUMC to linear peptides of the protein M of SARS-CoV Urbani,[2],0.6
same,Binding of Control serum LUMC to looped peptides of the protein M of SARS-CoV Urbani,[2],0.8
same,Rabbit serum linear peptides,[3],0.2
same,Rabbit serum looped peptides,[3],0.1
